Source: patent publication US20210145833A1, “Methods and Compositions for Hair Growth by Activating Autophagy” (The Regents of the University of California, priority 2018, published 2021)
“Also recorded” adds a separate entry of the source.

Legend:
[1] = tested on: C57BL/6J mouse dorsal skin; assay: Assay for hair regeneration in mice (topical treatment of shaved telogen dorsal skin); conditions: for Rapid anagen entry on whole dorsal telogen skin: among treated mice
Method: Anagen in black mice is macroscopically recognizable by the melanin pigment visible through the skin, as the melanogenic activity of follicular melanocytes is strictly coupled to the anagen stage of the hair cycle.
All compounds were tested in both male and female mice. Every experiment was repeated independently at least 2 times. Some treatments with different agents were performed concurrently with shared control arms. C57BL/6J male mice were obtained at 6 or 8 weeks of age from Jackson Laboratories (Bar Harbor, ME). C57BL/6J female mice were obtained at 8 weeks of age from Jackson Laboratories (Bar Harbor, Me.). Mice were fed a standard chow diet and provided ad libitum access to food and water throughout the study. Mice were shaved dorsally in telogen, i.e., postnatal days of about 43-45 for males (unless otherwise indicated) and Day 58 for females, respectively. Vehicle control (25 μL DMSO, unless otherwise indicated) or test compounds (in 25 μL DMSO, unless otherwise indicated) were topically applied on the shaved skin every other day (unless otherwise described) for the duration of the experiments (3-6 weeks). Appearance of skin pigmentation and hair growth were monitored and documented by photos and videos. Progression was also assigned a value from 0 to 100 based on pigmentation levels and hair shaft density, with 0 indicating no hair growth (and no pigmentation) and higher number corresponding to darker skin and larger areas of dense hair growth. […] The vehicle DMSO was also mixed with PLO base for topical application.

[2] = tested on: Beclin 1 S14 phosphorylation; assay: Western blot of treated mouse skin: phosphorylated Beclin 1 S14; type: in vivo; conditions: Day 5 post-treatment
Method: (§1) Male mice were shaved and treated every other day starting on Postnatal Day 43. After 5 days, telogen skin samples were harvested and stage confirmed. […] Tissue and cell debris were removed by centrifugation and the lysate was boiled for 5 min in 1×SDS loading buffer containing 5% β-mercaptoethanol.

[3] = tested on: Beclin 1 S91 phosphorylation; assay: Western blot of treated mouse skin: phosphorylated Beclin 1 S91; type: in vivo
Method: (§2) Male mice were shaved and treated every other day starting on Postnatal Day 43. After 5 days, telogen skin samples were harvested and stage confirmed. Mouse skin tissue lysate was prepared by homogenization in T-PER Tissue Protein Extraction Buffer (Thermo Scientific, 78510) with protease inhibitors (Roche, 11836153001) and phosphatase inhibitors (Sigma, P5726) by FastPrep-24 (MP Biomedicals). Tissue and cell debris were removed by centrifugation and the lysate was boiled for 5 min in 1×SDS loading buffer containing 5% β-mercaptoethanol. Samples were then subjected to SDS-PAGE on NuPAGE Novex 12% Bis-Tris gels (Invitrogen, NP0343BOX), and western blotting was carried out with antibodies against LC3 (Novus, NB100-2220), p62 (Sigma, P0068), Phospho-Beclin-1 (Ser15) (corresponding to Ser14 in mouse) (Cell Signaling, 84966), Phospho-Beclin-1 (Ser93) (corresponding to Ser91 in mouse) (Cell Signaling, 14717), Beclin-1 (Abcam, ab207612), or GAPDH (Ambion, AM4300).

p62 transcript = assay: Quantitative RT-PCR of p62 transcript in treated skin; type: in vivo, mouse; conditions: 24 hours post-treatment, B2m internal control
Method: At 24 hours post-treatment, telogen skin samples were harvested and total RNA was isolated using TRIzol reagent (Invitrogen) from whole thickness mouse skin tissue. cDNA was synthesized using iScript Reverse Transcription Supermix (Bio-Rad). iTaq Universal SYBR Green Supermix (Bio-Rad) and a Bio-Rad CFX Connect instrument were used for quantitative RT-PCR. The primer sequences used for RT-qPCR are as follows: […]

LC3 = assay: Western blot of treated mouse skin: LC3; type: in vivo; conditions: telogen skin of mice treated topically 5 days
Method: as §1

p62/SQSTM1 = assay: Western blot of treated mouse skin: p62; type: in vivo; conditions: treated mouse telogen skin
Method: as §1

[4] = tested on: autophagy related markers; assay: Western blot analysis of autophagy related markers in telogen skin; type: in vivo, mouse
Method: as §2

aged C57BL/6J mice [5] = assay: Topical treatment of shaved aged mice (pilot experiments); type: in vivo, mouse; conditions: pilot experiments on aged mice (data not shown)
Method: For oral α-KB treatment, aged male and female C57BL/6J mice were obtained at 87 weeks of age (NIA aged rodent colonies). Mice were housed in a controlled SPF facility (22±2° C., 6:00-18:00, 12 h/12 h light/dark cycle) at UCLA. […] For topical α-KB treatment, aged male C57BL/6J mice were obtained at 21 months of age (NIA aged rodent colonies), shaved the following week, and topically treated with α-KB (32 mM) every other day for one month. All experiments were approved by the UCLA Chancellor's Animal Research Committee.

aged C57BL/6J mice [6] = assay: Oral α-KB treatment of aged mice (hair loss / hair coating); type: in vivo, mouse; conditions: 8 mM in drinking water over 30 weeks, aged female mice, 131 weeks of age
Method: For oral α-KB treatment, aged male and female C57BL/6J mice were obtained at 87 weeks of age (NIA aged rodent colonies). Mice were housed in a controlled SPF facility (22±2° C., 6:00-18:00, 12 h/12 h light/dark cycle) at UCLA. […] Treatment with either water (vehicle control), or α-KB (90 mg/kg bodyweight) in drinking water, started when mice were at 101 weeks of age. For topical α-KB treatment, aged male C57BL/6J mice were obtained at 21 months of age (NIA aged rodent colonies), shaved the following week, and topically treated with α-KB (32 mM) every other day for one month. All experiments were approved by the UCLA Chancellor's Animal Research Committee.

hair follicles = conditions: treatment group vs control
Source text: Mouse dorsal skin was shaved before being collected for histological and molecular analyses. Full-thickness skin tissue was then fixed in 10% formalin solution (Sigma, HT501128) overnight and dehydrated for embedding in paraffin. […] Images were captured by Leica Aperio ScanScope AT brightfield system at ×20 magnification.

NC(=O)c1ncn([C@@H]2O[C@H](COP(=O)(O)O)[C@@H](O)[C@H]2O)c1N [AICAR, 5-aminoimidazole-4-carboxamide ribonucleotide]
Rapid anagen entry on whole dorsal telogen skin [1]: never | Hair regeneration ([1]; male mice shaved Postnatal Day 44, topical 16 mM every other day, Day 41 post-treatment): induces hair regeneration; also recorded: stimulated

C=CCNc1ncnc2ccc(Br)cc12 [SMER28]
Beclin 1 S14 phosphorylation (mTOR-dependent) [2]: not increased | Beclin 1 S91 phosphorylation (AMPK-dependent) [3]: not increased | p62 transcript levels (quantitative RT-PCR) (p62 transcript): increased | LC3 expression (Western blot) (LC3): increased | p62 expression (Western blot) (p62/SQSTM1): increased | Rapid anagen entry on whole dorsal telogen skin [1]: observed from time to time | Hair regeneration ([1]; male mice shaved Postnatal Day 45, topical 1 mM daily, Day 23 post-treatment): greatly induced hair regeneration | Hair regeneration ([1]; mice shaved Postnatal Day 51, topical 2 mM every other day, Day 20 post-treatment): induced hair regeneration

Cc1cc(Nc2cc(Cl)nc(Oc3ccc([N+](=O)[O-])cc3)n2)n[nH]1 [autophinib]
Effect of co-treatment on hair regeneration by α-KG (64 mM) ([1]; autophinib 4 mM, male mice shaved Postnatal Day 53, topical every other day, Day 20 post-treatment): inhibits hair regeneration by α-KG | Effect of co-treatment on SMER28 (2 mM) induced hair regeneration ([1]; autophinib 4 mM, mice shaved Postnatal Day 51, topical every other day, Day 20 post-treatment): inhibited; also recorded: prevented hair regeneration by SMER28

CO/C1=C\C(C)=C\[C@@H](C)[C@@H](O)[C@@H](C)C/C(C)=C/C=C/[C@H](OC)[C@@H]([C@@H](C)[C@@H](O)[C@H](C)[C@@]2(O)C[C@@H](O)[C@H](C)[C@@H](C(C)C)O2)OC1=O [bafilomycin A1]
Effect of co-treatment on hair regeneration by α-KG (64 mM) ([1]; bafilomycin 200 μM, male mice shaved Postnatal Day 52, topical every other day, Day 21 post-treatment): inhibits hair regeneration by α-KG

CN(C)C(=N)N=C(N)N [metformin]
Autophagy induction ([4]; topical treatment of mouse skin): similarly induced | Rapid anagen entry on whole dorsal telogen skin [1]: never | Hair regeneration ([1]; male mice shaved Postnatal Day 43, topical 160 mM every other day, vehicle H2O, Day 48 post-treatment): induces hair regeneration; also recorded: similarly induced

CC[C@H]1/C=C/C=C/C[C@@H](C)[C@H](O)[C@@](C)(O)C(=O)[C@@H](C)[C@H](O)[C@@H](C)C(=O)[C@@H](C)[C@H](O)[C@@H](C)/C=C/C(=O)O[C@@H]2[C@H](C)[C@H](CC1)O[C@]1(CC[C@H](C)[C@H](C[C@@H](C)O)O1)[C@H]2C [oligomycin]
Beclin 1 S14 phosphorylation (mTOR-dependent) [2]: increased | Beclin 1 S91 phosphorylation (AMPK-dependent) [3]: increased | LC3 expression (Western blot) (LC3): Increased autophagy | Rapid anagen entry on whole dorsal telogen skin [1]: observed from time to time | Hair regeneration in female mice ([1]; female mice shaved Postnatal Day 58, topical 10 μM every other day, Day 26 post-treatment): stimulate hair regeneration | Hair regeneration ([1]; male mice shaved Postnatal Day 44, topical 100 μM every other day, Day 23 post-treatment): similarly promoted hair regeneration | Hair regeneration ([1]; male mice shaved Postnatal Day 44, topical 100 μM every other day, Day 23 post-treatment, listed as Oligomycin): induces hair regeneration

CO[C@H]1C[C@@H]2CC[C@@H](C)[C@@](O)(O2)C(=O)C(=O)N2CCCC[C@H]2C(=O)O[C@H]([C@H](C)C[C@@H]2CC[C@@H](O)[C@H](OC)C2)CC(=O)[C@H](C)/C=C(\C)[C@@H](O)[C@@H](OC)C(=O)[C@H](C)C[C@H](C)/C=C/C=C/C=C/1C [rapamycin]
Adverse skin effect ([1]; topical 16 μM (data not shown)): hair loss and open wounds

CCC(=O)C(=O)O [α-KB, α-ketobutyrate]
Hair growth / regeneration in shaved aged animals (aged C57BL/6J mice [5]): only moderately promoted hair growth | LC3 expression (Western blot) (LC3): elevated | Phosphorylated Beclin 1 (Western blot) ([4]; telogen skin of mice treated 5 days): elevated | Rapid anagen entry on whole dorsal telogen skin [1]: never | Hair regeneration ([1]; male mice shaved Postnatal Day 44, topical 32 mM every other day, Day 39 post-treatment): induces hair regeneration; also recorded: substantially induced skin pigmentation and hair regeneration | Hair loss / hair coating in aged mice (aged C57BL/6J mice [6]): negates hair loss; also recorded: greatly improved hair coating

O=C(O)CCC(=O)C(=O)O [α-KG, α-ketoglutarate]
Follicles and proliferation marker Ki-67 expression (hair follicles): More follicles and high proliferation marker Ki-67 expression | Hair growth / regeneration in shaved aged animals (aged C57BL/6J mice [5]): did not visibly increase
